According to the supplement of paper PMC10627819:

Assays:
S. pneumoniae D39V [1] = test: fitness (endpoint OD595 vs no drug) (fraction); higher = more growth
Summary of the method: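 Bacterial fitness was scored as optical density at the stationary-phase transition relative to the robust mean of no-drug control wells. Scores are capped at 1. The growth data were OD595 readings every 30 min for 14 h at 37 °C, background-subtracted against the first reading, from 384-well plates inoculated at OD595 0.01 in TSB, LB Lennox or CY.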

S. aureus Newman = test: Bliss interaction score (quartile over a dose matrix) (fitness difference); higher = more antagonism (negative = synergy)
Summary of the method: (§1)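 Fitness was OD595 at entry into stationary phase divided by the plate's robust no-drug mean and capped at 1; single-drug fitness was inferred from combination data. The Bliss score is observed minus expected (product) fitness, summarised by quartiles over technical, biological and donor/recipient replicates.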

S. aureus DSM 20231 = test: as above
Summary of the method: as §1

S. pneumoniae D39V [2] = test: as above
Summary of the method: as §1

B. subtilis 168 = test: as above
Summary of the method: as §1
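For Bliss interaction score (quartile over a dose matrix) in this document: first quartile when negative (synergy) and third quartile when positive (antagonism).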

Structure (SMILES): CC[C@H]1OC(=O)[C@H](C)[C@@H](O[C@H]2C[C@@](C)(OC)[C@@H](O)[C@H](C)O2)[C@H](C)[C@@H](O[C@@H]2O[C@H](C)C[C@H](N(C)C)[C@H]2O)[C@](C)(OC)C[C@@H](C)C(=O)[C@H](C)[C@@H](O)[C@]1(C)O [Clarithromycin] + CN1C2=CC=CC=C2N=C3C1=CC=CC3=O [Pyocyanin]
- fitness (S. pneumoniae D39V [1]; first compound 0.007812 µg/mL, partner 0.325 µg/mL, one replicate): 0.965
- fitness (S. pneumoniae D39V [1]; first compound 0.007812 µg/mL, partner 0.65 µg/mL, one replicate): 0.928
- fitness (S. pneumoniae D39V [1]; first compound 0.007812 µg/mL, partner 1.3 µg/mL, one replicate): 0.747
- fitness (S. pneumoniae D39V [1]; first compound 0.01562 µg/mL, partner 0.325 µg/mL, one replicate): 0.884
- fitness (S. pneumoniae D39V [1]; first compound 0.01562 µg/mL, partner 0.65 µg/mL, one replicate): 0.88
- fitness (S. pneumoniae D39V [1]; first compound 0.01562 µg/mL, partner 1.3 µg/mL, one replicate): 0.695
- fitness (S. pneumoniae D39V [1]; first compound 0.03125 µg/mL, partner 0.325 µg/mL, one replicate): 0.682
- fitness (S. pneumoniae D39V [1]; first compound 0.03125 µg/mL, partner 0.65 µg/mL, one replicate): 0.651
- fitness (S. pneumoniae D39V [1]; first compound 0.03125 µg/mL, partner 1.3 µg/mL, one replicate): 0.525
- fitness (S. pneumoniae D39V [1]; first compound 0.0625 µg/mL, partner 0.325 µg/mL, one replicate): 0.757
- fitness (S. pneumoniae D39V [1]; first compound 0.0625 µg/mL, partner 0.65 µg/mL, one replicate): 0.75
- fitness (S. pneumoniae D39V [1]; first compound 0.07 µg/mL, partner 0.325 µg/mL): 0.0912
- fitness (S. pneumoniae D39V [1]; first compound 0.07 µg/mL, partner 0.65 µg/mL): 0.0867
- fitness (S. pneumoniae D39V [1]; first compound 0.07 µg/mL, partner 1.3 µg/mL): 0.0798
- fitness (S. pneumoniae D39V [1]; first compound 0.125 µg/mL, partner 0.325 µg/mL, one replicate): 0.486
- fitness (S. pneumoniae D39V [1]; first compound 0.125 µg/mL, partner 0.65 µg/mL, one replicate): 0.501
- fitness (S. pneumoniae D39V [1]; first compound 0.14 µg/mL, partner 0.325 µg/mL): 0.0902
- fitness (S. pneumoniae D39V [1]; first compound 0.14 µg/mL, partner 0.65 µg/mL): 0.0888
- fitness (S. pneumoniae D39V [1]; first compound 0.14 µg/mL, partner 1.3 µg/mL): 0.0783
- fitness (S. pneumoniae D39V [1]; first compound 0.25 µg/mL, partner 0.325 µg/mL, one replicate): 0.112
- fitness (S. pneumoniae D39V [1]; first compound 0.25 µg/mL, partner 0.65 µg/mL, one replicate): 0.273
- fitness (S. pneumoniae D39V [1]; first compound 0.28 µg/mL, partner 0.325 µg/mL): 0.0525
- fitness (S. pneumoniae D39V [1]; first compound 0.28 µg/mL, partner 0.65 µg/mL): 0.0453
- fitness (S. pneumoniae D39V [1]; first compound 0.28 µg/mL, partner 1.3 µg/mL): 0.0672
- Bliss interaction score (S. aureus Newman): -0.0697
- Bliss interaction score (S. aureus DSM 20231): -0.0903
- Bliss interaction score (S. pneumoniae D39V [2]): -0.0433
- Bliss interaction score (B. subtilis 168): 0.0334

Structure (SMILES): CC[C@H]1OC(=O)[C@H](C)[C@@H](O[C@H]2C[C@@](C)(OC)[C@@H](O)[C@H](C)O2)[C@H](C)[C@@H](O[C@@H]2O[C@H](C)C[C@H](N(C)C)[C@H]2O)[C@](C)(OC)C[C@@H](C)C(=O)[C@H](C)[C@@H](O)[C@]1(C)O [Clarithromycin] + Cc1onc(-c2ccccc2)c1C(=O)N[C@@H]1C(=O)N2[C@@H]1SC(C)(C)[C@@H]2C(=O)O [Oxacillin]
- fitness (S. pneumoniae D39V [1]; first compound 0.007812 µg/mL, partner 0.01 µg/mL, one replicate): 0.9
- fitness (S. pneumoniae D39V [1]; first compound 0.007812 µg/mL, partner 0.02 µg/mL, one replicate): 0.911
- fitness (S. pneumoniae D39V [1]; first compound 0.007812 µg/mL, partner 0.04 µg/mL, one replicate): 0.414
- fitness (S. pneumoniae D39V [1]; first compound 0.01562 µg/mL, partner 0.01 µg/mL, one replicate): 0.856
- fitness (S. pneumoniae D39V [1]; first compound 0.01562 µg/mL, partner 0.02 µg/mL, one replicate): 0.833
- fitness (S. pneumoniae D39V [1]; first compound 0.01562 µg/mL, partner 0.04 µg/mL, one replicate): 0.48
- fitness (S. pneumoniae D39V [1]; first compound 0.03125 µg/mL, partner 0.01 µg/mL, one replicate): 0.678
- fitness (S. pneumoniae D39V [1]; first compound 0.03125 µg/mL, partner 0.02 µg/mL, one replicate): 0.646
- fitness (S. pneumoniae D39V [1]; first compound 0.03125 µg/mL, partner 0.04 µg/mL, one replicate): 0.418
- fitness (S. pneumoniae D39V [1]; first compound 0.0625 µg/mL, partner 0.01 µg/mL): 0.564
- fitness (S. pneumoniae D39V [1]; first compound 0.0625 µg/mL, partner 0.02 µg/mL): 0.54
- fitness (S. pneumoniae D39V [1]; first compound 0.07 µg/mL, partner 0.005 µg/mL): 0.179
- fitness (S. pneumoniae D39V [1]; first compound 0.07 µg/mL, partner 0.01 µg/mL): 0.185
- fitness (S. pneumoniae D39V [1]; first compound 0.07 µg/mL, partner 0.02 µg/mL): 0.182
- fitness (S. pneumoniae D39V [1]; first compound 0.125 µg/mL, partner 0.04 µg/mL): 0.254
- fitness (S. pneumoniae D39V [1]; first compound 0.14 µg/mL, partner 0.005 µg/mL): 0.128
- fitness (S. pneumoniae D39V [1]; first compound 0.14 µg/mL, partner 0.01 µg/mL): 0.136
- fitness (S. pneumoniae D39V [1]; first compound 0.14 µg/mL, partner 0.02 µg/mL): 0.117
- fitness (S. pneumoniae D39V [1]; first compound 0.25 µg/mL, partner 0.01 µg/mL): 0.165
- fitness (S. pneumoniae D39V [1]; first compound 0.25 µg/mL, partner 0.02 µg/mL): 0.158
- fitness (S. pneumoniae D39V [1]; first compound 0.25 µg/mL, partner 0.04 µg/mL): 0.0887
- fitness (S. pneumoniae D39V [1]; first compound 0.28 µg/mL, partner 0.005 µg/mL): 0.119
- fitness (S. pneumoniae D39V [1]; first compound 0.28 µg/mL, partner 0.01 µg/mL): 0.0928
- fitness (S. pneumoniae D39V [1]; first compound 0.28 µg/mL, partner 0.02 µg/mL): 0.107
- Bliss interaction score (S. aureus Newman): -0.0384
- Bliss interaction score (S. aureus DSM 20231): 0.0328
- Bliss interaction score (S. pneumoniae D39V [2]): 0.0844
- Bliss interaction score (B. subtilis 168): 0.0227

Structure (SMILES): N[C@@H]1CONC1=O [CycloserineD] + CN[C@H](CC(C)C)C(=O)N[C@H]1C(=O)N[C@@H](CC(N)=O)C(=O)N[C@H]2C(=O)N[C@H]3C(=O)N[C@H](C(=O)N[C@H](C(=O)O)c4cc(O)cc(O)c4-c4cc3ccc4O)[C@H](O[C@H]3C[C@](C)(N)[C@@H](O)[C@H](C)O3)c3ccc(c(Cl)c3)Oc3cc2cc(c3O[C@@H]2O[C@H](CO)[C@@H](O)[C@H](O)[C@H]2O[C@H]2C[C@](C)(NCc3ccc(-c4ccc(Cl)cc4)cc3)[C@@H](O)[C@H](C)O2)Oc2ccc(cc2Cl)[C@H]1O [Oritavancin]
- Bliss interaction score (S. aureus Newman): 0.0585
- Bliss interaction score (S. aureus DSM 20231): -0.0757
- Bliss interaction score (S. pneumoniae D39V [2]): 0.0458
- Bliss interaction score (B. subtilis 168): 0.0352
